# From patent US8247439B2, “Jasmonate derivatives, pharmaceutical compositions and methods of use thereof” (Sepal Pharma Ltd., priority 2005, dated 2012)
# Columns and labels:
# [1] = system: Molt-4 lymphoblastic leukemia cells; test: Cytotoxicity of jasmonate derivatives in Molt-4 cells (Example 1, XTT/MTS assay); format: cell-based, Human; details: for Cytotoxic potency at 0.1 mM, first screening: Molt-4, 0.1 mM; for Cytotoxic potency, second screen: Molt-4, 0.01-0.1 mM, FIG. 2; for Cytotoxic potency compared to methyl jasmonate, first screening: Molt-4, 0.1-1 mM, FIGS. 1A and 1B; for Cytotoxic potency compared to methyl jasmonate, third screen: Molt-4, FIG. 3 and Table 1; for inhibition at 1 µM / inhibition at 10 µM / inhibition at 100 µM: Homo sapiens, MOLT-4, 24 hours, value (±spread), read-out: Cytotoxicity in Molt-4 cells (% of inhibition compared to control); for inhibition at 1 µM: 0.001 mM; for inhibition at 10 µM: 0.01 mM; for inhibition at 100 µM: 0.1 mM
# Procedure: (§1) Measurement of reduction in the number of living cells was determined by the CellTiter 96 Aqueous Non-Radioactive Cell Proliferation Assay (XTT Cell Proliferation Kit assay (Biological industries, Beit-Haemek, Israel)). Upon completion of a given experiment, MTS (a tetrazolium compound) at 333 μg/ml+phenazine methosulfate (at 25 μM) was added to each well of the 96-well plate for 1 hour at 37° C. This allowed for development of a color reaction in which dehydrogenases reduce the MTS in metabolically active cells. Soluble MTS formazan product was measured at a wavelength of 490 nm using a CERES 900 HDI ELISA reader (Bio-Tek Instruments, Inc, Highland Park, Vt.).
# (§2) Percentage of Optical density is directly proportional to the number of living cells in culture. Cytotoxicity (%) was calculated in the following way: [(OD of control cells —OD of drug-treated cells)/OD of control cells]×100.
# The cytotoxicity of jasmonate derivatives A1-A6, B1 and B2 was compared to that of the previously studied jasmonate, methyl jasmonate (MJ). The cytotoxicity of each compound was determined in Molt-4-Human acute lymphoblastic leukemia cell-line.
# […] Each experimental point was performed in triplicates. Untreated cells were used as control. The test compounds were prepared as a stock of 100 mM in DMSO. Dilutions were performed in culture medium and DMSO so that the maximal concentration of DMSO in each well was 0.5%. […] Cytotoxicity and optical density were determined as described above.
# [2] = system: normal peripheral blood lymphocytes (PBL), +PHA/TPA; test: Cytotoxicity in normal PBL pre-incubated with PHA/TPA (Example 2); format: cell-based; details: Homo sapiens, Lymphocyte, 24 h, one day incubation
# Procedure: as §1, §2
# (§3) Molt-4 (leukemia) cells (at 2.5×10^4/ml), and normal peripheral blood lymphocytes (PBL, at 2×10^5/ml) were incubated in 96-well plates for one day in the presence of different concentrations of methyl jasmonate, (MJ—disclosed in U.S. Pat. No. 6,469,061), and compounds A3 and A4 of the present invention at concentrations: of 0.001, 0.01, 0.1 and 0.5 mM. In some experiments, PBL were pre-incubated with 0.8 μg/ml phytohemagglutinin (PHA)+5 ng/ml TPA for […], to induce entrance into the cell cycle. These cells proliferate and therefore are similar in that respect to cancer cells, making the comparison more valid. The optical density that represented viable cells was determined as described above.
# [3] = system: normal peripheral blood lymphocytes (PBL), -PHA/TPA; test: Cytotoxicity in normal PBL without PHA/TPA (Example 2); format: cell-based, Human; details: for IC20 / IC50: Homo sapiens, Lymphocyte, 24 h, PBL -PHA/TPA, one day incubation; for Selective cytotoxic effect: leukemic cells vs normal lymphocytes: Molt-4 vs PBL, FIGS. 4A and 4B
# Procedure: as §1, §2, §3
# [4] = system: Molt-4 (leukemia) cells; test: Cytotoxicity in Molt-4 cells (Example 2, selectivity); format: cell-based; details: Homo sapiens, 24 h; Molt-4, one day incubation
# Procedure: as §1, §2, §3
# [5] = system: Fibroblasts; test: Cytotoxicity of B3 in fibroblasts (Example 4); format: cell-based; details: Homo sapiens, Fibroblast, 24 hours, n=2
# Procedure: as §1, §2
# (§4) Compound B3 was added at concentration ranging from 0.0025-1 mM for 24 hours. The number of repeats for each experiment is indicated by n. Untreated cells were used as control. Compound B3 was prepared as a stock of 100 mM in 100% DMSO and dilutions in medium were prepared as described above. Optical density and percentage of Cytotoxicity were determined as described above.
# [6] = system: Molt-4; test: Cytotoxicity of B3 in Molt-4 (Example 4); format: cell-based; details: Homo sapiens; Molt-4, 24 hours, n=12
# Procedure: as §1, §2
# (§5) Mononuclear cells were isolated from peripheral blood of healthy donors and treated as described above. The non-adherent PBL were pre-incubated without PHA and TPA. Molt-4 and PBL cells were seeded in 96-well plates as described above.
# (§6) Compound B3 was added at concentration ranging from 0.0025-1 mM for 24 hours. The number of repeats for each experiment is indicated by n. Untreated cells were used as control. […] Optical density and percentage of Cytotoxicity were determined as described above.
# [7] = system: NCI H460; test: Cytotoxicity of B3 in NCI H460 (Example 4); format: cell-based; details: Homo sapiens; NCI H460, 24 hours, n=3
# Procedure: as §1, §2, §4
# [8] = system: Molt 4 cell line; test: ATP depletion in Molt-4 (CellTiter-Glo luminescent assay, Example 7); format: cell-based; details: Homo sapiens; Molt-4, 1 hr exposure
# Procedure: The effect of methyl jasmonate and compound B3 on ATP level depletion is studied in the Molt 4 cell line using ATP kit and luminometer (Cell titer—Glo Luminescent, cell viability assay, Promega, code G7571, Ref.)
# Cell preparation: Cells (Molt 4) were seeded in 96-well opaque-walled plates. The number of cells (in a volume of 100 μL/well) was: 5×10^4 cells/well. Control wells contained 100 μL medium without cells (background luminescence) Incubations were performed at 37° C., 6% CO2, using the following culture medium: RPMI 1640, 10% FCS, 2 mM L-Glutamine and penicillin 200 U/ml+200 μg/ml streptomycin or equivalent. For the cell viability assay, cells were incubated for 12 min-24 hr. in the absence or presence of methyl jasmonate or several jasmonate derivatives of the present invention at 0.05-4 mM. Reagent Preparation The CellTiter-Glo® buffer and the lyophilized substrate were thawed and equilibrated to room temperature. The buffer was mixed with the substrate by vortexing for 1 minute. […]
# The plates were equilibrated to room temperature [25° C.] for 30 min. […] The plates were allowed to incubate at 25° C. for 10 min in the Luminoskan to stabilize luminescence signal. Results were read through Record luminescence [Thermo-Luminoskan Ascent] or equivalent, with integration time of 2000 m. seconds per well and blanking time 5%. […] Percent of cytotoxicity was determined described above.
# [9] = system: Molt-4 cell line; test: Cytotoxicity of different batches of B3 towards Molt-4 (Example 5); format: cell-based, Human
# Procedure: as §1, §2
# The IC50 values in Molt-4 cells for B3 were 0.06 mM in average. For cytotoxicity evaluation in different cell lines B3-IV was used.
# [10] = system: CLL (PBL, chronic lymphocytic leukemia); test: Cytotoxicity of B3 in CLL cells (Example 4); format: cell-based; details: Homo sapiens, CLL cell, 24 hours, n=14
# Procedure: as §1, §2
# Cytotoxicity of compound B3 was evaluated in 1) Molt 4 cells (an in-vitro model for transformed cells); 2) PBL (an ex vivo model for normal cells); and 3) PBL CLL—Peripheral blood lymphocytes collected from chronic lymphocytic leukemia patients (an ex vivo model for ex vivo transformed cells). […]
# Compound B3 was added at concentration ranging from 0.0025-1 mM for 24 hours. […] Optical density and percentage of Cytotoxicity were determined as described above.
# [11] = system: LNCaP; test: Cytotoxicity of B3 in LNCaP (Example 4); format: cell-based; details: Homo sapiens, 24 hours, n=4
# Procedure: as §1, §2, §4
# [12] = system: PBL, healthy donors; test: Cytotoxicity of B3 in PBL of healthy donors (Example 4); format: cell-based, Human
# Procedure: as §1, §2, §5, §6
# [13] = system: B16; test: Cytotoxicity of B3 in B16 (Example 4); format: cell-based; details: Mus musculus; B16, 24 hours, n=6
# Procedure: as §1, §2, §4
# [14] = system: HTB38; test: Cytotoxicity of B3 in HTB38 (Example 4); format: cell-based; details: Homo sapiens, HTB-38; HTB38, 24 hours, n=3
# Procedure: as §1, §2, §4
# [15] = system: lymphomas; details: mice; cited from earlier work
# [16] = system: Molt-4 (leukemia) cells; details: cited from earlier work
# [17] = system: normal peripheral blood lymphocytes (PBL), -PHA/TPA; details: cited from earlier work
compound,measurement,setting,value
CCCCCC1c2nc(NC(=O)c3cnccn3)sc2CC1CC(=O)NC1CC1 (centres unmarked) [Compound A1],"Cytotoxic potency at 0.1 mM, first screening",[1],very potent
same,"Cytotoxic potency, second screen",[1],most potent
same,"Cytotoxic potency compared to methyl jasmonate, first screening",[1],more potent than methyl jasmonate
CCCCCC1c2nc(N)sc2CC1CC(=O)N1CCN(C)CC1 (centres unmarked) [Compound A2],"Cytotoxic potency compared to methyl jasmonate, first screening",[1],more potent than methyl jasmonate
CCCCCC1c2nc(NC(=O)Cc3cccs3)sc2CC1CC(=O)O (centres unmarked) [Compound A3],IC20,[2],70 µM
same,IC50,[2],300 µM
same,IC20,[3],30 µM
same,IC50,[3],250 µM
same,Selective cytotoxic effect: leukemic cells vs normal lymphocytes,[3],without exerting a substantial effect on normal lymphocytes
same,IC20,[4],10 µM
same,IC50,[4],50 µM
same,"Cytotoxic potency at 0.1 mM, first screening",[1],very potent
same,"Cytotoxic potency, second screen",[1],most potent
same,"Cytotoxic potency compared to methyl jasmonate, first screening",[1],more potent than methyl jasmonate
same,"Cytotoxic potency compared to methyl jasmonate, third screen",[1],significantly more potent than methyl jasmonate
CCCCCC1c2nc(-c3ccccc3)sc2CC1CC(=O)N1CCC(O)CC1 (centres unmarked) [Compound A4],IC20,[2],25 µM
same,IC20,[3],< 10 µM
same,Selective cytotoxic effect: leukemic cells vs normal lymphocytes,[3],without exerting a substantial effect on normal lymphocytes
same,IC20,[4],< 10 µM
same,IC50,[4],45 µM
same,inhibition at 1 µM,[1],4%
same,inhibition at 10 µM,[1],10%
same,inhibition at 100 µM,[1],96%
same,"Cytotoxic potency at 0.1 mM, first screening",[1],very potent
same,"Cytotoxic potency, second screen",[1],most potent
same,"Cytotoxic potency compared to methyl jasmonate, first screening",[1],more potent than methyl jasmonate
same,"Cytotoxic potency compared to methyl jasmonate, third screen",[1],significantly more potent than methyl jasmonate
CCCCCC1c2nc(NS(=O)(=O)c3cccc(F)c3)sc2CC1CC(=O)OC (centres unmarked) [Compound A5],"Cytotoxic potency at 0.1 mM, first screening",[1],very potent
same,"Cytotoxic potency compared to methyl jasmonate, first screening",[1],more potent than methyl jasmonate
CCCCCC1c2nc(Nc3ccccc3)sc2CC1CC(=O)NCCOC (centres unmarked) [Compound A6],"Cytotoxic potency at 0.1 mM, first screening",[1],very potent
same,"Cytotoxic potency, second screen",[1],most potent
same,"Cytotoxic potency compared to methyl jasmonate, first screening",[1],more potent than methyl jasmonate
CC/C=C\CC1C(=O)CCC1CCOC(=O)CC1CCC(=O)C1C/C=C\CC (centres unmarked) [Compound B3],IC50,[5],> 500 µM
same,IC50,[6],70 µM
same,IC50,[7],> 1000 µM
same,IC50,[8],500 µM
same,IC50,"[9]; Homo sapiens, MOLT-4, Molt-4",60 µM
same,IC50,"[9]; Molt-4, listed as B3 (IV)",50 µM
same,IC50,"[9]; Molt-4, listed as B3 (V)",80 µM
same,IC50,[10],250 µM
same,IC50,[11],> 1000 µM
same,IC50,"[12]; Homo sapiens, PBL healthy donors, without PHA/TPA, 24 hours, n=12",1000 µM
same,Selective cytotoxicity towards cancer cells,"[12]; Molt-4, CLL vs PBL, FIG. 5",exhibits selective cytotoxicity towards cancer cells
same,IC50,[13],700 µM
same,IC50,[14],> 1000 µM
"CC/C=C\CC1C(=O)CCC1CC(=O)OC (centres unmarked) [MJ, methyl jasmonate, reference compound]",Prevention of development of lymphomas,[15],effective in preventing development of lymphomas in mice
same,IC50,[8],500 µM
same,IC20,[2],> 500 µM
same,IC50,[2],> 500 µM
same,IC50,"[9]; Homo sapiens, MOLT-4, Molt-4",600 µM
same,Cytotoxicity to Molt-4 cells (previously reported data),[16],cytotoxic to Molt-4 cells
same,IC20,[3],> 500 µM
same,IC50,[3],> 500 µM
same,IC20,[4],30 to 50 µM
same,IC50,[4],100 to 500 µM
same,inhibition at 1 µM,[1],6%
same,inhibition at 10 µM,[1],5%
same,inhibition at 100 µM,[1],17%
same,Toxicity to normal lymphocytes (previously reported data),[17],almost not toxic to normal lymphocytes
